Results taken from PubChem BioAssay (NCI).
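Method: 48-hour compound exposure of cells in 96-well plates, five concentrations, linear interpolation of endpoints. At the GI50, growth is halved. TGI marks complete inhibition of growth.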

Assays:
Assay in all cases: NCI-60 cell line screen, 48 h
OVCAR-5 ovarian = system: OVCAR-5 ovarian
SW-620 colon = system: SW-620 colon
DU-145 prostate = system: DU-145 prostate
MDA-MB-231 breast = system: MDA-MB-231 breast
HS 578T breast = system: HS 578T breast
MDA-MB-435 = system: MDA-MB-435
A498 renal = system: A498 renal
COLO 205 colon = system: COLO 205 colon
SK-OV-3 ovarian = system: SK-OV-3 ovarian
A549 NSCLC = system: A549 NSCLC
SK-MEL-2 melanoma = system: SK-MEL-2 melanoma
UO-31 renal = system: UO-31 renal
U251 CNS = system: U251 CNS
CAKI-1 renal = system: CAKI-1 renal
LOX IMVI melanoma = system: LOX IMVI melanoma
HCT-15 colon = system: HCT-15 colon
KM12 colon = system: KM12 colon
MOLT-4 leukemia = system: MOLT-4 leukemia
BT-549 breast = system: BT-549 breast
786-0 renal = system: 786-0 renal
HCC-2998 colon = system: HCC-2998 colon
NCI-H460 lung = system: NCI-H460 lung
HOP-62 NSCLC = system: HOP-62 NSCLC
MCF7 breast = system: MCF7 breast
RXF 393 renal = system: RXF 393 renal
RPMI-8226 leukemia = system: RPMI-8226 leukemia
NCI/ADR-RES ovarian = system: NCI/ADR-RES ovarian
K-562 leukemia = system: K-562 leukemia
NCI-H23 lung = system: NCI-H23 lung
EKVX NSCLC = system: EKVX NSCLC
IGROV1 ovarian = system: IGROV1 ovarian
SNB-19 CNS = system: SNB-19 CNS
SNB-75 CNS = system: SNB-75 CNS
OVCAR-8 ovarian = system: OVCAR-8 ovarian
M14 melanoma = system: M14 melanoma
MALME-3M melanoma = system: MALME-3M melanoma
ACHN renal = system: ACHN renal
SF-539 CNS = system: SF-539 CNS
SF-268 CNS = system: SF-268 CNS
OVCAR-4 ovarian = system: OVCAR-4 ovarian
HCT-116 colon = system: HCT-116 colon
SK-MEL-28 melanoma = system: SK-MEL-28 melanoma
T-47D breast = system: T-47D breast
CCRF-CEM leukemia = system: CCRF-CEM leukemia
TK-10 renal = system: TK-10 renal
OVCAR-3 ovarian = system: OVCAR-3 ovarian
HT29 colon = system: HT29 colon
UACC-62 melanoma = system: UACC-62 melanoma
SK-MEL-5 melanoma = system: SK-MEL-5 melanoma
SN12C renal = system: SN12C renal
SF-295 CNS = system: SF-295 CNS
PC-3 prostate = system: PC-3 prostate
SR leukemia = system: SR leukemia
NCI-H226 lung = system: NCI-H226 lung
HL-60(TB) leukemia = system: HL-60(TB) leukemia
UACC-257 melanoma = system: UACC-257 melanoma
NCI-H522 lung = system: NCI-H522 lung

Question: Which results are given for CCn1c(-c2nonc2N)nc2cncc(C(=O)NCCNC)c21?
Answer: GI50 (OVCAR-5 ovarian): 0.441 µM; TGI (OVCAR-5 ovarian): > 25 µM; GI50 (SW-620 colon): 4.07 µM; TGI (SW-620 colon): > 25 µM; GI50 (DU-145 prostate): 22.8 µM; TGI (DU-145 prostate): > 25 µM; GI50 (MDA-MB-231 breast): > 25 µM; TGI (MDA-MB-231 breast): > 25 µM; GI50 (HS 578T breast): 0.36 µM; TGI (HS 578T breast): > 6.59 µM; GI50 (MDA-MB-435): 2.64 µM; TGI (MDA-MB-435): > 25 µM; GI50 (A498 renal): 0.834 µM; TGI (A498 renal): > 19.8 µM; GI50 (COLO 205 colon): 1.15 µM; TGI (COLO 205 colon): 8.51 µM; GI50 (SK-OV-3 ovarian): 17.3 µM; TGI (SK-OV-3 ovarian): > 25 µM; GI50 (A549 NSCLC): 4.47 µM; TGI (A549 NSCLC): > 23.3 µM; GI50 (SK-MEL-2 melanoma): 5.27 µM; TGI (SK-MEL-2 melanoma): > 25 µM; GI50 (UO-31 renal): 0.684 µM; TGI (UO-31 renal): 5.77 µM; GI50 (U251 CNS): > 25 µM; TGI (U251 CNS): > 25 µM; GI50 (CAKI-1 renal): 1.56 µM; TGI (CAKI-1 renal): 14.4 µM; GI50 (LOX IMVI melanoma): > 25 µM; TGI (LOX IMVI melanoma): > 25 µM; GI50 (HCT-15 colon): 5.98 µM; TGI (HCT-15 colon): > 25 µM; GI50 (KM12 colon): > 25 µM; TGI (KM12 colon): > 25 µM; GI50 (MOLT-4 leukemia): > 25 µM; TGI (MOLT-4 leukemia): > 25 µM; GI50 (BT-549 breast): 3.13 µM; TGI (BT-549 breast): > 22.3 µM; GI50 (786-0 renal): 12.1 µM; TGI (786-0 renal): > 25 µM; GI50 (HCC-2998 colon): 4.77 µM; TGI (HCC-2998 colon): > 25 µM; GI50 (NCI-H460 lung): 8.59 µM; TGI (NCI-H460 lung): > 25 µM; GI50 (HOP-62 NSCLC): 3.11 µM; TGI (HOP-62 NSCLC): > 25 µM; GI50 (MCF7 breast): 1.92 µM; TGI (MCF7 breast): > 25 µM; GI50 (RXF 393 renal): 2.57 µM; TGI (RXF 393 renal): > 25 µM; GI50 (RPMI-8226 leukemia): > 25 µM; TGI (RPMI-8226 leukemia): > 25 µM; GI50 (NCI/ADR-RES ovarian): 18.9 µM; TGI (NCI/ADR-RES ovarian): > 25 µM; GI50 (K-562 leukemia): > 25 µM; TGI (K-562 leukemia): > 25 µM; GI50 (NCI-H23 lung): 9.32 µM; TGI (NCI-H23 lung): > 25 µM; GI50 (EKVX NSCLC): 0.903 µM; TGI (EKVX NSCLC): > 25 µM; GI50 (IGROV1 ovarian): 4.87 µM; TGI (IGROV1 ovarian): > 22.6 µM; GI50 (SNB-19 CNS): > 25 µM; TGI (SNB-19 CNS): > 25 µM; GI50 (SNB-75 CNS): 0.246 µM; TGI (SNB-75 CNS): 6.61 µM; GI50 (OVCAR-8 ovarian): 15.3 µM; TGI (OVCAR-8 ovarian): > 25 µM; GI50 (M14 melanoma): 17.2 µM; TGI (M14 melanoma): > 25 µM; GI50 (MALME-3M melanoma): 5.7 µM; TGI (MALME-3M melanoma): > 25 µM; GI50 (ACHN renal): 11.2 µM; TGI (ACHN renal): > 25 µM; GI50 (SF-539 CNS): 3.04 µM; TGI (SF-539 CNS): > 25 µM; GI50 (SF-268 CNS): 7.78 µM; TGI (SF-268 CNS): > 25 µM; GI50 (OVCAR-4 ovarian): > 22.8 µM; TGI (OVCAR-4 ovarian): > 25 µM; GI50 (HCT-116 colon): 2.78 µM; TGI (HCT-116 colon): > 25 µM; GI50 (SK-MEL-28 melanoma): 12.9 µM; TGI (SK-MEL-28 melanoma): > 25 µM; GI50 (T-47D breast): 16.7 µM; TGI (T-47D breast): > 25 µM; GI50 (CCRF-CEM leukemia): > 19.9 µM; TGI (CCRF-CEM leukemia): > 25 µM; GI50 (TK-10 renal): 0.612 µM; TGI (TK-10 renal): 4.64 µM; GI50 (OVCAR-3 ovarian): > 23.9 µM; TGI (OVCAR-3 ovarian): > 25 µM; GI50 (HT29 colon): 0.817 µM; TGI (HT29 colon): > 25 µM; GI50 (UACC-62 melanoma): 13.6 µM; TGI (UACC-62 melanoma): > 25 µM; GI50 (SK-MEL-5 melanoma): > 16 µM; TGI (SK-MEL-5 melanoma): > 25 µM; GI50 (SN12C renal): > 25 µM; TGI (SN12C renal): > 25 µM; GI50 (SF-295 CNS): > 25 µM; TGI (SF-295 CNS): > 25 µM; GI50 (PC-3 prostate): > 25 µM; TGI (PC-3 prostate): > 25 µM; GI50 (SR leukemia): 4.53 µM; TGI (SR leukemia): > 25 µM; GI50 (NCI-H226 lung): 0.454 µM; TGI (NCI-H226 lung): > 25 µM; GI50 (HL-60(TB) leukemia): > 25 µM; TGI (HL-60(TB) leukemia): > 25 µM; GI50 (UACC-257 melanoma): 3.04 µM; TGI (UACC-257 melanoma): > 25 µM; GI50 (NCI-H522 lung): 13.1 µM; TGI (NCI-H522 lung): > 25 µM
